≈ marks a conversion by molar mass, not a printed value.
Assays:
Type in all cases: cell-based
[1] = tested on: Bacillus subtilis JCM 2499; experiment: in vitro antibacterial activity, agar plate dilution method (MIC); details: JCM2499, read-out: Antimicrobial spectrum MIC
Experimental: (§1) The in vitro antibacterial activities of the compounds provided by the present invention were tested by a standard method of Chemotherapy Society of Japan, i.e. an agar plate dilution method disclosed in CHEMOTHERAPY Vol. 29, pages 76–79, 1981, and the activities of them on anaerobic bacteria were tested by a method disclosed in CHEMOTHERAPY Vol. 27, 559–590, 1979. The results were shown in terms of the minimum inhibition concentration (MIC, μg/ml) for the growth of the bacteria.

[2] = tested on: Branhamella catarrhalis IID 5233; experiment: as above; details: Moraxella catarrhalis, IID5233, read-out: Antimicrobial spectrum MIC
Experimental: as §1

[3] = tested on: Enterococcus faecalis CSJ 1212; experiment: as above; details: CSJ1212, read-out: Antimicrobial spectrum MIC
Experimental: as §1

[4] = tested on: Enterococcus faecalis RIMD 3116001; experiment: as above; details: RIMD3116001, read-out: Antimicrobial spectrum MIC
Experimental: as §1

[5] = tested on: Escherichia coli IFO 12734; experiment: as above; details: IFO12734, read-out: Antimicrobial spectrum MIC
Experimental: as §1

[6] = tested on: Haemophilus influenzae IID 984; experiment: as above; details: IID984, read-out: Antimicrobial spectrum MIC
Experimental: as §1

[7] = tested on: Klebsiella pneumoniae IID 865; experiment: as above; details: IID865, read-out: Antimicrobial spectrum MIC
Experimental: as §1

[8] = tested on: Micrococcus luteus KI 3122; experiment: as above; details: KI3122, read-out: Antimicrobial spectrum MIC
Experimental: as §1

[9] = tested on: Pseudomonas aeruginosa CSJ 1853; experiment: as above; details: CSJ1853, read-out: Antimicrobial spectrum MIC
Experimental: as §1

[10] = tested on: Staphylococcus aureus Clin-211(MRSA); experiment: as above; details: read-out: Antimicrobial spectrum MIC
Experimental: as §1

[11] = tested on: Staphylococcus aureus IFO 13276; experiment: as above; details: IFO13276, read-out: Antimicrobial spectrum MIC
Experimental: as §1

[12] = tested on: Staphylococcus aureus IID 803(Smith); experiment: as above; details: IID803, read-out: Antimicrobial spectrum MIC
Experimental: as §1

[13] = tested on: Staphylococcus aureus JCM 2874; experiment: as above; details: JCM2874, read-out: Antimicrobial spectrum MIC
Experimental: as §1

[14] = tested on: Staphylococcus epidermidis IFO 12993; experiment: as above; details: IFO12993, read-out: Antimicrobial spectrum MIC
Experimental: as §1

[15] = tested on: Streptococcus pneumoniae IID 553; experiment: as above; details: IID553, read-out: Antimicrobial spectrum MIC
Experimental: as §1

[16] = tested on: Bacteroides fragilis GAI 0675; experiment: in vitro antibacterial activity on anaerobic bacteria (MIC); details: GAI0675; Bacteroides fragilis GAI 0675, anaerobic; read-out: Antimicrobial spectrum MIC
Experimental: as §1

[17] = tested on: Bacteroides thetaiotaomicron ATCC 29741; experiment: as above; details: ATCC29741; Bacteroides thetaiotaomicron ATCC 29741, anaerobic; read-out: Antimicrobial spectrum MIC
Experimental: as §1

[18] = tested on: Propionibacterium acnes JCM 6425; experiment: as above; details: Cutibacterium acnes, JCM6425; Propionibacterium acnes JCM 6425, anaerobic; read-out: Antimicrobial spectrum MIC
Experimental: as §1

MIC [1]	MIC [2]	MIC [3]	MIC [4]	MIC [5]	MIC [6]	MIC [7]	MIC [8]	MIC [9]	MIC [10]	MIC [11]	MIC [12]	MIC [13]	MIC [14]	MIC [15]	MIC [16]	MIC [17]	MIC [18]	Structure (SMILES)
≤ 0.004 µg/mL	0.016 µg/mL (≈ 0.0425 µM)	0.125 µg/mL (≈ 0.332 µM)	0.125 µg/mL (≈ 0.332 µM)	0.125 µg/mL (≈ 0.332 µM)	0.125 µg/mL (≈ 0.332 µM)	0.031 µg/mL (≈ 0.0824 µM)	0.125 µg/mL (≈ 0.332 µM)	2 µg/mL (≈ 5.31 µM)	0.063 µg/mL (≈ 0.167 µM)	0.008 µg/mL (≈ 0.0213 µM)	≤ 0.004 µg/mL	≤ 0.004 µg/mL	0.016 µg/mL (≈ 0.0425 µM)	0.125 µg/mL (≈ 0.332 µM)	0.063 µg/mL (≈ 0.167 µM)	0.25 µg/mL (≈ 0.664 µM)	–	CC(=NO)c1ccc(-c2ccn3c(=O)c(C(=O)O)cc(C4CC4)c3c2C)cc1 [Example 38, 1-Cyclopropyl-8-[4-(1-hydroxyiminoethyl)phenyl]-9-methyl-4-oxo-4H-quinolizine-3-carboxylic acid]
≤ 0.004 µg/mL	0.016 µg/mL (≈ 0.0423 µM)	0.063 µg/mL (≈ 0.166 µM)	0.063 µg/mL (≈ 0.166 µM)	0.125 µg/mL (≈ 0.33 µM)	0.031 µg/mL (≈ 0.0819 µM)	0.063 µg/mL (≈ 0.166 µM)	0.125 µg/mL (≈ 0.33 µM)	1 µg/mL (≈ 2.64 µM)	0.031 µg/mL (≈ 0.0819 µM)	≤ 0.004 µg/mL	≤ 0.004 µg/mL	≤ 0.004 µg/mL	0.008 µg/mL (≈ 0.0211 µM)	0.125 µg/mL (≈ 0.33 µM)	0.125 µg/mL (≈ 0.33 µM)	0.25 µg/mL (≈ 0.661 µM)	0.016 µg/mL (≈ 0.0423 µM)	Cc1c(-c2ccc(NCCO)cc2)ccn2c(=O)c(C(=O)O)cc(C3CC3)c12 [Example 46, 1-cyclopropyl-8-[4-(2-hydroxyethylamino)phenyl]-9-methyl-4-oxo-4H-quinolizine-3-carboxylic acid]
–	0.031 µg/mL (≈ 0.088 µM)	0.125 µg/mL (≈ 0.355 µM)	0.25 µg/mL (≈ 0.709 µM)	0.063 µg/mL (≈ 0.179 µM)	0.031 µg/mL (≈ 0.088 µM)	0.031 µg/mL (≈ 0.088 µM)	0.125 µg/mL (≈ 0.355 µM)	0.25 µg/mL (≈ 0.709 µM)	0.063 µg/mL (≈ 0.179 µM)	0.016 µg/mL (≈ 0.0454 µM)	≤ 0.004 µg/mL	≤ 0.004 µg/mL	0.016 µg/mL (≈ 0.0454 µM)	0.25 µg/mL (≈ 0.709 µM)	0.031 µg/mL (≈ 0.088 µM)	0.125 µg/mL (≈ 0.355 µM)	0.031 µg/mL (≈ 0.088 µM)	Cc1c(-c2ccc(N)c(F)c2)ccn2c(=O)c(C(=O)O)cc(C3CC3)c12 [Example 97, 8-(4-amino-3-fluorophenyl)-1-cyclopropyl-9-methyl-4-oxo-4H-quinolizine-3-carboxylic acid]
0.016 µg/mL (≈ 0.0473 µM)	0.125 µg/mL (≈ 0.369 µM)	0.5 µg/mL (≈ 1.48 µM)	0.5 µg/mL (≈ 1.48 µM)	0.063 µg/mL (≈ 0.186 µM)	0.031 µg/mL (≈ 0.0916 µM)	0.008 µg/mL (≈ 0.0236 µM)	0.25 µg/mL (≈ 0.739 µM)	1 µg/mL (≈ 2.96 µM)	–	0.031 µg/mL (≈ 0.0916 µM)	–	0.063 µg/mL (≈ 0.186 µM)	–	0.5 µg/mL (≈ 1.48 µM)	1 µg/mL (≈ 2.96 µM)	2 µg/mL (≈ 5.91 µM)	–	Cc1c(-c2ccc(CN)o2)ccn2c(=O)c(C(=O)O)cc(C3CC3)c12 [Example 113, 8-(5-Aminomethylfuran-2-yl)-1-cyclopropyl-9-methyl-4-oxo-4H-quinolizine-3-carboxylic acid]

Continued, molecule first:

Structure (SMILES)	MIC [1]	MIC [2]	MIC [3]	MIC [4]	MIC [5]	MIC [6]	MIC [7]	MIC [8]	MIC [9]	MIC [10]	MIC [11]	MIC [12]	MIC [13]	MIC [14]	MIC [15]	MIC [16]	MIC [17]	MIC [18]
Cc1c(-c2ccc(C#N)cc2)ccn2c(=O)c(C(=O)O)cc(C3CC3)c12 [Example 36, 8-(4-Cyanophenyl)-1-cyclopropyl-9-methyl-4-oxo-4H-quinolizine-3-carboxylic acid]	≤ 0.004 µg/mL	0.031 µg/mL (≈ 0.09 µM)	0.25 µg/mL (≈ 0.726 µM)	0.25 µg/mL (≈ 0.726 µM)	0.25 µg/mL (≈ 0.726 µM)	0.063 µg/mL (≈ 0.183 µM)	0.031 µg/mL (≈ 0.09 µM)	0.125 µg/mL (≈ 0.363 µM)	0.5 µg/mL (≈ 1.45 µM)	0.125 µg/mL (≈ 0.363 µM)	0.016 µg/mL (≈ 0.0465 µM)	0.008 µg/mL (≈ 0.0232 µM)	0.016 µg/mL (≈ 0.0465 µM)	0.016 µg/mL (≈ 0.0465 µM)	0.5 µg/mL (≈ 1.45 µM)	0.125 µg/mL (≈ 0.363 µM)	0.5 µg/mL (≈ 1.45 µM)	0.063 µg/mL (≈ 0.183 µM)
CCOC(=O)c1cc(C2CC2)c2c(C)c(-c3cc(F)c(CN)s3)ccn2c1=O [Example 111, Ethyl 8-(5-aminomethyl-4-fluorothiophen-2-yl)-1-cyclopropyl-9-methyl-4-oxo-4H-quinolizine-3-carboxylate]	–	0.031 µg/mL (≈ 0.0774 µM)	0.063 µg/mL (≈ 0.157 µM)	0.125 µg/mL (≈ 0.312 µM)	0.063 µg/mL (≈ 0.157 µM)	0.008 µg/mL (≈ 0.02 µM)	0.008 µg/mL (≈ 0.02 µM)	0.25 µg/mL (≈ 0.624 µM)	0.25 µg/mL (≈ 0.624 µM)	0.25 µg/mL (≈ 0.624 µM)	0.016 µg/mL (≈ 0.04 µM)	0.016 µg/mL (≈ 0.04 µM)	0.031 µg/mL (≈ 0.0774 µM)	0.031 µg/mL (≈ 0.0774 µM)	0.125 µg/mL (≈ 0.312 µM)	0.25 µg/mL (≈ 0.624 µM)	0.5 µg/mL (≈ 1.25 µM)	0.125 µg/mL (≈ 0.312 µM)

From patent US7223773B2, “4-oxoquinolizine antibacterial agent having 2-pyridone skeleton as partial structure” (Salo Pharmaceutical Co., Ltd., priority 2001, dated 2007)
